This assay deals with carbonic anhydrase (CAII). Put plainly: furosemide binding on immobilized CAII, Epic biosensor (Example 3). The note with it: cystine in combination with glycine. As for the experimental part:
Step 3. Binding of protein inhibitor: The plate was equilibrated at ambient (25° C.) temperature for about 30 min before rinsing with PBS (on Biomek, following standard rinsing protocol). The plate was centrifuged and soaked in 0.1% DMSO in PBS for about 4 h at ambient temperature.
The plate was then read in the Epic® instrument for 20 min.

Experimental findings from patent publication US20110212466A1, “Thiol-Modified Surface Immobilization Article And Method” (priority 2009, published 2011) are described below.

Structures are written as SMILES.

For `NS(=O)(=O)c1cc(C(=O)O)c(NCc2ccco2)cc1Cl` [furosemide], the binding entry is reported as “over 10 pm”.
